# Results published in patent US7101915B1, “P-terphenyl compounds” (Shionogi & Co., Ltd., priority 1996, dated 2006).
# Marks after values point to notes of the source that are not given here.
# How the values were obtained:
# [1] = test system: IgM production of mouse spleen lymphocytes; assay: Suppressive effect on antibody production of mouse spleen lymphocytes: IgM; format: cell-based, BALB/c (nu/nu) mice; settings: Lymphocyte, 240 h, LPS + IL-4, 10 days
# Method: (§1) Experiment 6 Suppressive Effect on Antibody Production of Mouse Spleen Lymphocytes 1. Experimental Method 1) Animals
# (§2) BALB/c (nu/nu) mice were bought from Japan SLC, Inc. (Shizuoka) and 7 weeks old-male mice were used.
# (§3) RPMI medium (Nissui Pharmaceutical Co., Ltd.) containing 10% fetal bovine serum (HyClone Lab.) inactivated at 56° C. for 30 minutes, penicillin (100 units/ml) and streptomycin (100 μg/ml) (GIBCO) was used for experiments.
# (§4) Each of the compounds was dissolved in dimethylsulfoxide (Nakaraitesk) at […] and diluted with the medium to adjust a final concentration to 0.1 μg/ml −10 μg/ml.
# (§5) 4) Mouse Spleen Lymphocytes […]
# (§6) In 96-well cultivating plate (Sumitomo Bakelite Company Limited) mouse spleen lymphocytes were inoculated 2×10^5 cells per well. […] After the cultivation for 10 days, the amount of the antibody in a supernatant was quantified by ELISA method.
# (§7) 7) Quantification of the IgG1, IgG2a and IgM Antibodies
# (§8) In 96-well plate 50 μl of 10 μg/ml Goat Anti-Mouse Ig (IgM+G+A, H+ L) (Southern Biotechnology, Birmingham) was added and the plate was coated at 4° C. overnight. […] After washing three times with PBST, 100 μl of culture supernatant which was diluted with PBS or 100 μl of an antibody standard solution (Mouse IgG1 standard, Mouse IgG2a standard, Mouse IgM standard, BETHYL Laboratories) of a pre-determined concentration was added and incubated for 1 hour. […]
# [2] = test system: IgG2a production of mouse spleen lymphocytes; assay: Suppressive effect on antibody production of mouse spleen lymphocytes: IgG2a; format: cell-based, BALB/c (nu/nu) mice; settings: Lymphocyte, 240 h, LPS + IL-4, 10 days
# Method: as §1, §2, §3, §4, §5, §6, §7, §8
# [3] = test system: anti-OVA IgE antibody titer (PCA titer); assay: Suppressive effect on the IgE production against ovalbumin (OVA), PCA titer; format: in vivo, BALB/c mice; settings: 40 mg/kg orally for 10 days; untreated group 9-12
# Method: Experiment 4 Suppressive Effect on the IgE Production Against Ovalbumin (OVA)
# BALB/c mice (female, 8-10 weeks old) and Wistar rats (female, 8-10 weeks old) which were bought from Japan SLC, Inc. (Shizuoka) were used.
# BALB/c mice were immunized by an intraperitoneal administration of 0.2 ml suspension of 2 μg of ovalbumin (OVA) and 2 mg of aluminium hydroxide gel in physiological saline. After 10 days, blood was drawn from hearts, sera were separated and stocked at −40° C. till the measurement of an IgE antibody titer.
# After the compound of the present invention was dissolved or suspended in N, N-dimethylacetoamide, the mixture was diluted 20 times with miglyol 812 neutral oil. The obtained solution was orally administered to mice at 0.1 ml per mouse. The administration was continued for 10 days from the immunizing day to the day before drawing blood. IPD-1151-T (a compound described in Jpn. Pharmacol. (1993) 61, 31–39) and a compound No. 36 (a compound 36 described in J. Med. Chem. (1997) 40: 395–407) were examined as controls by the same method.
# 4) Measurement of Anti-OVA IgE Antibody Titer (PCA Titer)
# The samples 2-fold diluted with physiological saline were prepared from the obtained mouse serum and each 50 μl of the solution was intradermally injected to backs of Wistar rats which previously hair cut. After 24 hours, a passive cutaneous anaphylaxis reaction (PCA) was induced by an intravenous injection of 0.5 ml of physiological saline containing 1 mg of OVA and 5 mg of Evans' blue dye. After 30 minutes, the rats were sacrified and the highest dilution rate of the serum giving bluing with a diameter of more than 5 mm was recorded as the PCA titer. For example, when a serum is positive for the PCA reaction till […], the anti-OVA IgE antibody titer of the mouse is defined as 7.
smiles,measurement,setting,value
Cc1cc(-c2ccc(OCC=C(Cl)Cl)c(F)c2)c(C)cc1-c1ccc(O)cc1 [Compound I-963],IC50,[1],3.5 µg/mL
same,IC50,[2],3.6 µg/mL
same,PCA Titer,[3],3.6**
